# According to US20230321044A1, “TREATMENT OR PREVENTION METHOD FOR CHRONIC HEART FAILURE” (Japan Tobacco Inc., priority 2020, published 2023):
# Entries after “also recorded” stand apart in the source; their conditions may differ.
# How the values were obtained:
# [1] = test system: post-myocardial infarction heart failure rats; assay: Assessment of cardiac function in rats with post-myocardial infarction heart failure (Test Example 1); assay type: in vivo, rat
# Description: Male SD rats (8-week old, Japan SLC, Inc.) were anesthetized with pentobarbital, then, under controlled mechanical ventilation, underwent thoracotomy and permanent ligation of the left anterior descending coronary artery to prepare rats with post-myocardial infarction heart failure. A sham-operated group was prepared by undergoing only thoracotomy in the same way to expose the heart. Two weeks later, vehicle (0.5% methylcellulose solution) or Compound 1 (3 mg/kg group or Ascending Dose group) was orally administered once daily to the group of post-myocardial infarction heart failure rat, and the vehicle was orally administered once daily to the sham-operated group. The dose for the Ascending Dose group was started with 3 mg/kg, increased to 6 mg/kg after two weeks and to 8 mg/kg after two more weeks, and maintained at 8 mg/kg thereafter. After eight weeks of administration, an ultrasonograph (Aplio 300, Toshiba Medical Systems Corporation) was used to measure the left ventricular ejection fraction, and Catheter-tipped micromanometer (Model SPR-320, Millar Inc.) was inserted into the left ventricle via the left carotid artery to measure the left ventricular end-diastolic pressure. For statistical analysis, Aspin-Welch t test was conducted between the sham-operated vehicle-administered group and the vehicle-administered group of post-myocardial infarction heart failure rats. Steel’s multiple comparison test was conducted for the Compound 1 group to the vehicle group of post-myocardial infarction heart failure rats. The significance level was two-sided 5%. Form the results, it was confirmed that the vehicle-administered group of post-myocardial infarction heart failure rats developed HFrEF because the left ventricular ejection fraction was decreased and the left ventricular end-diastolic pressure was increased, compared with the sham-operated vehicle-administered group.
# [2] = test system: hypertensive heart failure rats; assay: Assessment of cardiac function in rats with hypertensive heart failure (Test Example 2); assay type: in vivo, rat
# Description: Male DIS/Eis (Dahl-Iwai S) rats (Dahl rats) (7-week old, Japan SLC, Inc.) were fed a high-salt diet (MF 8% sodium chloride-adjusted feed, Oriental Yeast Co., ltd.) to prepare hypertensive heart failure rats. Normal controls were fed a normal diet (CRF-1 solid, Oriental Yeast Co., ltd.). Three weeks later, after confirmation of the development of pathological condition (hypertension or cardiomegaly), vehicle (0.5% methylcellulose solution) or Compound 1 (3 mg/kg group or Ascending Dose group) was orally administered to the hypertensive heart failure rat group once daily, and the vehicle was orally administered once daily to the normal control group. […] After five weeks of administration, an ultrasonograph (Aplio 300, Toshiba Medical Systems Corporation) was used to measure the left ventricular ejection fraction, and a non-invasive automated blood pressure measuring device (BP-98A, Softlon Co.,Ltd.) was used to measure the systolic blood pressure. After six weeks of administration, ADVantage P-V catheter (Model FTH-1918B-E318, Transonic Scisense Inc.) was inserted into the left ventricle from the apex to measure the left ventricular end-diastolic pressure. […] For statistical analysis, Student test or Aspin-Welch t test was conducted between the vehicle-administered normal control group and the vehicle-administered group of hypertensive heart failure rats. Dunnett’s multiple test was conducted for the Compound 1 group to the vehicle group of hypertensive heart failure rats. The significance level was two-sided 5%. Form the results, it was confirmed that the hypertensive heart failure rats developed HFpEF because the EDPVRβ and left ventricular end-diastolic pressure were increased whereas the left ventricular ejection fraction was not decreased, compared with the normal control group. […] Compound 1 also had no effect on the urine volume in the hypertensive heart failure rats.
structure (smiles),measurement,setting,value
C[C@H]1C(=O)NC[C@@H]1C(=O)Nc1cc(-c2cc(F)cc(OC(C)(C)C)c2)n(C(F)(F)F)n1 [Compound 1],left ventricular ejection fraction,"[1]; 3 mg/kg group, oral once daily, eight weeks, vs vehicle, FIG. 2",higher value
same,left ventricular ejection fraction,"[1]; Ascending Dose group (3, then 6, then 8 mg/kg), oral once daily, eight weeks, vs vehicle, p < 0.05, FIG. 2",significantly increased
same,left ventricular ejection fraction,"[1]; dose groups not distinguished (3 mg/kg or Ascending Dose), oral once daily, eight weeks",increased
same,left ventricular end-diastolic pressure,"[1]; post-myocardial infarction heart failure rats, oral once daily, eight weeks, in comparison with the vehicle, FIG. 1",lower value; also recorded: suppressed
same,HFrEF improving effect,"[1]; post-myocardial infarction heart failure rats, overall conclusion",improved HFrEF; also recorded: has an HFrEF improving effect
same,EDPVRβ (end-diastolic pressure-volume relationship β),"[2]; 3 mg/kg group, oral once daily, six weeks, vs vehicle, FIG. 4",lower value
same,EDPVRβ (end-diastolic pressure-volume relationship β),"[2]; Ascending Dose group (3, then 6, then 8 mg/kg), oral once daily, six weeks, vs vehicle, p < 0.05, FIG. 4",significantly reduced
same,EDPVRβ (end-diastolic pressure-volume relationship β),"[2]; dose groups not distinguished, oral once daily, six weeks",reduced
same,left ventricular end-diastolic pressure,"[2]; hypertensive heart failure (Dahl) rats, oral once daily, six weeks, vs vehicle, p < 0.05 and p < 0.01, FIG. 3",significantly reduced
same,systolic blood pressure,"[2]; hypertensive heart failure rats, after five weeks of administration, FIG. 6",had no effect
same,urine volume,"[2]; hypertensive heart failure rats, in comparison with the vehicle, FIG. 7",did not affect; also recorded: had no effect
same,HFpEF improving effect,"[2]; hypertensive heart failure rats, overall conclusion",has an HFpEF improving effect
